{
  "source": "patent US10849966B2",
  "about": "“Methods for treating netosis and neutrophil activation” (TRUSTEES OF BOSTON UNIVERSITY, priority 2017, dated 2020)",
  "key": {"[1]": {"target": "T1, DEspR on intact human cells (Homo sapiens, UniProt B0L3A2)", "T1 construct": "endogenous in cells; host or cells: intact human cells / 'DEspR+ human cells'", "T1 sequence (B0L3A2 1-85)": "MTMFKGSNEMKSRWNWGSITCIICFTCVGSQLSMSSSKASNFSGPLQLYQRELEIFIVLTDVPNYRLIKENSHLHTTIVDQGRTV", "assay": "hu6g8 binding to DEspR on intact human cells", "settings": "done in triplicate", "source_text": "FIGS. 17A-17C depict anti-DEspR-mab (hu6g8 mab). FIG. 17A depicts a diagram of DEspR, murine precursor mabs and humanized IgG and IgG4 mabs. Hu6g8 is notated as 6g8g7-hu-IgG4 raised against epitope 2, spanning the putative binding domain.\nDescribed herein is the development, characterization, and validation of a fully humanized anti-DEspR mAb with a S228P hinge-stabilized IgG4/kappa FC region, designated herein as hu-6g8 or […]. The hu-6g8 was designed for high binding affinity to DEspR+ human cells and inhibition of activated neutrophil survival. hu-6g8 is reactive in all species, having identical epitopes in human, primates and rodents, which facilitates preclinical and clinical studies using the therapeutic lead. […] (FIG. 6). Through recombinant DNA technology, hu-6g8 was designed with optimal biophysical properties via: a) avoidance of T-cell epitopes for low immunogenicity—‘deimmunized’, b) optimization of heavy and light chain interactions for stability of variable domains, and c) exclusion of destabilizing post-translational modification sites [deamidation, oxidation, acid-lability, inappropriate N-glycosylation, isomerization and pyroglutamate formation].\nDescribed herein are the advantages of anti-DEspR mAb targeted AECs. DEspR, the dual endothelin1/signal peptide receptor,^9 is a validated target on human activated neutrophils and NETs. […]"}, "[2]": {"test_system": "chronic kidney disease in Tg25+ male rats", "assay": "CKD in Tg25+ male rats fed a HSD", "type": "in vivo, rat", "settings": "hu-6g8 3 mg/kg IV at D0, D7, D14 and D21, Mean ± SD"}, "Panc1 xenograft": {"test_system": "Panc1 xenograft", "assay": "Panc1 xenograft model survival", "settings": "in vivo"}},
  "note": "Where “and” joins values, the source holds several entries; their conditions need not be identical. Equal entries are not always repeated.",
  "data": [
    {"substance": "hu-6g8: fully humanized anti-DEspR mAb with a S228P hinge-stabilized IgG4/kappa FC region", "values": [
      {"measurement": "EC50", "setting": "[1]", "value": "< 5 nM and 4.2 nM"},
      {"measurement": "Albuminuria", "setting": "[2]; D14", "value": "217 ± 87", "unit": "mg/kg/day"},
      {"measurement": "Creatinine Clearance", "setting": "[2]; D14", "value": "279 ± 82", "unit": "µL/min"},
      {"measurement": "UACR (urinary albumin/urinary creatinine ratio)", "setting": "[2]; D14", "value": "8309 ± 3731"},
      {"measurement": "Urinary Exosome Excretion", "setting": "[2]; D14", "value": "771 ± 220", "unit": "mg/kg/day"},
      {"measurement": "Albuminuria", "setting": "[2]; D28", "value": "164.8 ± 86", "unit": "mg/kg/day"},
      {"measurement": "Creatinine Clearance", "setting": "[2]; D28", "value": "268 ± 30", "unit": "µL/min"},
      {"measurement": "UACR (urinary albumin/urinary creatinine ratio)", "setting": "[2]; D28", "value": "5567 ± 2210"},
      {"measurement": "Urinary Exosome Excretion", "setting": "[2]; D28", "value": "651 ± 191", "unit": "mg/kg/day"},
      {"measurement": "survival", "setting": "Panc1 xenograft", "value": "increased survival"}
    ]}
  ]
}
